Data from PMC11435058, “Synthesis of New Thiazole-Privileged Chalcones as Tubulin Polymerization Inhibitors with Potential Anticancer Activities” (Pharmaceuticals, 2024).

Key:
MOLT-4 = assay: NCI-60 anticancer screen (SRB; single dose and five doses); conditions: Homo sapiens
MDA-MB-231/ATCC = assay: as above; conditions: Homo sapiens
DU-145 = assay: as above; conditions: Homo sapiens
M14 = assay: as above; conditions: Homo sapiens
RXF 393 = assay: as above; conditions: Homo sapiens
SF-539 = assay: as above; conditions: Homo sapiens
SK-OV-3 = assay: as above; conditions: Homo sapiens
TK-10 = assay: as above; conditions: Homo sapiens
SN12C = assay: as above; conditions: Homo sapiens
SF-295 = assay: as above; conditions: Homo sapiens
SW-620 = assay: as above; conditions: Homo sapiens
HCC-2998 = assay: as above
786-0 = assay: as above; conditions: Homo sapiens
HOP-62 = assay: as above; conditions: Homo sapiens
NCI-H23 = assay: as above; conditions: Homo sapiens
PC-3 = assay: as above; conditions: Homo sapiens
MALME-3M = assay: as above; conditions: Homo sapiens
SNB-19 = assay: cells; conditions: Homo sapiens
HL-60(TB) = assay: NCI-60 anticancer screen (SRB; single dose and five doses); conditions: Homo sapiens
T-47D = assay: as above; conditions: Homo sapiens, T47D
MDA-MB-435 = assay: as above; conditions: Homo sapiens
A498 = assay: as above; conditions: Homo sapiens
BT-549 = assay: as above; conditions: Homo sapiens
SK-MEL-5 = assay: as above; conditions: Homo sapiens
SK-MEL-28 = assay: as above; conditions: Homo sapiens
OVCAR-4 = assay: as above; conditions: Homo sapiens
CCRF-CEM = assay: NCI-60 anticancer screen (SRB; single dose 10 μM and five doses); conditions: Homo sapiens
UACC-257 = assay: NCI-60 anticancer screen (SRB; single dose and five doses); conditions: Homo sapiens
[1] = 48 h, read-out: Growth Percentage

## Cc1[nH]c(=S)sc1C(=O)/C=C/c1ccc(Br)cc1 [2g, (E)-3-(4-Bromophenyl)-1-(4-Methyl-2-Thioxo-2,3-Dihydrothiazol-5-yl)Prop-2-En-1-One]
MOLT-4; MOLT-4
  GI50: 3.57 µM
MOLT-4; MOLT-4, 48 h, read-out: Growth Percentage
  activity at 10 µM: 30.2%
MOLT-4; MOLT-4, read-out: LC50
  CC50: > 100 µM
MOLT-4; MOLT-4, read-out: TGI
  IC (TGI): 36.6 µM
MDA-MB-231/ATCC; MDA-MB-231
  GI50: 10.9 µM
MDA-MB-231/ATCC; MDA-MB-231, 48 h, read-out: Growth Percentage
  activity at 10 µM: 9.49%
MDA-MB-231/ATCC; MDA-MB-231, read-out: LC50
  CC50: 50.9 µM
MDA-MB-231/ATCC; MDA-MB-231, read-out: TGI
  IC (TGI): 23.5 µM
DU-145; DU-145
  GI50: 3.52 µM
DU-145; DU-145, 48 h, read-out: Growth Percentage
  activity at 10 µM: 23.9%
DU-145; DU-145, read-out: LC50
  CC50: 35.3 µM
DU-145; DU-145, read-out: TGI
  IC (TGI): 12 µM
M14; M14
  GI50: 9.02 µM
M14; M14, 48 h, read-out: Growth Percentage
  activity at 10 µM: 74.5%
M14; M14, read-out: TGI
  IC (TGI): 22.9 µM
RXF 393; RXF 393
  GI50: 2.58 µM
RXF 393; RXF 393, 48 h, read-out: Growth Percentage
  activity at 10 µM: 16%
RXF 393; RXF 393, read-out: LC50
  CC50: 33 µM
RXF 393; RXF 393, read-out: TGI
  IC (TGI): 9.43 µM
SF-539; SF-539
  GI50: 2 µM
SF-539; SF-539, 48 h, read-out: Growth Percentage
  activity at 10 µM: -25.3%
SF-539; SF-539, read-out: TGI
  IC (TGI): 4.67 µM
SK-OV-3; SK-OV-3
  GI50: 13.8 µM
SK-OV-3; SK-OV-3, 48 h, read-out: Growth Percentage
  activity at 10 µM: 96.7%
SK-OV-3; SK-OV-3, read-out: LC50
  CC50: 74.9 µM
SK-OV-3; SK-OV-3, read-out: TGI
  IC (TGI): 32.2 µM
TK-10; TK-10
  GI50: 3.04 µM
TK-10; TK-10, 48 h, read-out: Growth Percentage
  activity at 10 µM: 37.8%
TK-10; TK-10, read-out: LC50
  CC50: 35.2 µM
TK-10; TK-10, read-out: TGI
  IC (TGI): 11.8 µM
SN12C
  GI50: 3.15 µM
SN12C; [1]
  activity at 10 µM: 19.2%
SN12C; read-out: LC50
  CC50: 36.8 µM
SN12C; read-out: TGI
  IC (TGI): 13.1 µM
SF-295; SF-295
  GI50: 12.7 µM
SF-295; SF-295, 48 h, read-out: Growth Percentage
  activity at 10 µM: 90.4%
SF-295; SF-295, read-out: LC50
  CC50: 52.7 µM
SF-295; SF-295, read-out: TGI
  IC (TGI): 25.8 µM
SW-620; SW-620
  GI50: 2.82 µM
SW-620; SW-620, 48 h, read-out: Growth Percentage
  activity at 10 µM: 5.7%
SW-620; SW-620, read-out: LC50
  CC50: 41.6 µM
SW-620; SW-620, read-out: TGI
  IC (TGI): 11.7 µM
HCC-2998; Homo sapiens, HCC 2998
  GI50: 2.72 µM
HCC-2998; Homo sapiens, HCC 2998, 48 h, read-out: Growth Percentage
  activity at 10 µM: 3.23%
HCC-2998; Homo sapiens, HCC 2998, read-out: LC50
  CC50: 31.6 µM
HCC-2998; five-dose, Colon Cancer HCC-2998
  TGI: 9.62 µM
786-0; 786-0
  GI50: 3.33 µM
786-0; 786-0, 48 h, read-out: Growth Percentage
  activity at 10 µM: 25%
786-0; 786-0, read-out: LC50
  CC50: 41.8 µM
786-0; 786-0, read-out: TGI
  IC (TGI): 13.3 µM
HOP-62; HOP-62
  GI50: 3.94 µM
HOP-62; HOP-62, 48 h, read-out: Growth Percentage
  activity at 10 µM: 11.9%
HOP-62; HOP-62, read-out: LC50
  CC50: 61.2 µM
HOP-62; HOP-62, read-out: TGI
  IC (TGI): 14 µM
NCI-H23; NCI-H23
  GI50: 8.23 µM
NCI-H23; NCI-H23, 48 h, read-out: Growth Percentage
  activity at 10 µM: 65%
NCI-H23; NCI-H23, read-out: LC50
  CC50: 48 µM
NCI-H23; NCI-H23, read-out: TGI
  IC (TGI): 21.3 µM
PC-3; PC-3
  GI50: 4.68 µM
PC-3; PC-3, 48 h, read-out: Growth Percentage
  activity at 10 µM: 48.8%
PC-3; PC-3, read-out: LC50
  CC50: > 100 µM
PC-3; PC-3, read-out: TGI
  IC (TGI): 26 µM
MALME-3M
  GI50: 12.5 µM
MALME-3M; [1]
  activity at 10 µM: 72.9%
MALME-3M; read-out: LC50
  CC50: 67.2 µM
MALME-3M; read-out: TGI
  IC (TGI): 29 µM
SNB-19; SNB-19
  GI50: 3.47 µM
SNB-19; SNB-19, 48 h, read-out: Growth Percentage
  activity at 10 µM: 32.7%
SNB-19; SNB-19, read-out: LC50
  CC50: 37.7 µM
SNB-19; SNB-19, read-out: TGI
  IC (TGI): 13.4 µM
HL-60(TB); HL-60
  GI50: 1.94 µM
HL-60(TB); HL-60, 48 h, read-out: Growth Percentage
  activity at 10 µM: 13.2%
HL-60(TB); HL-60, read-out: LC50
  CC50: > 100 µM
HL-60(TB); HL-60, read-out: TGI
  IC (TGI): 9.92 µM
T-47D
  GI50: 2.77 µM
T-47D; [1]
  activity at 10 µM: 29%
T-47D; read-out: LC50
  CC50: 61.7 µM
T-47D; read-out: TGI
  IC (TGI): 11.8 µM
MDA-MB-435; MDA-MB-435
  GI50: 4.12 µM
MDA-MB-435; MDA-MB-435, 48 h, read-out: Growth Percentage
  activity at 10 µM: 8.26%
MDA-MB-435; MDA-MB-435, read-out: LC50
  CC50: 45.1 µM
MDA-MB-435; MDA-MB-435, read-out: TGI
  IC (TGI): 16.7 µM
A498; A498
  GI50: 13.5 µM
A498; A498, 48 h, read-out: Growth Percentage, A498, dose of 10 μM
  activity at 10 µM: 109%
A498; A498, read-out: LC50
  CC50: 51.8 µM
A498; A498, read-out: TGI
  IC (TGI): 26.5 µM
BT-549; BT-549
  GI50: 2.6 µM
BT-549; BT-549, 48 h, read-out: Growth Percentage
  activity at 10 µM: 19.5%
BT-549; BT-549, read-out: TGI
  IC (TGI): 7.28 µM
SK-MEL-5; SK-MEL-5
  GI50: 5.82 µM
SK-MEL-5; SK-MEL-5, 48 h, read-out: Growth Percentage
  activity at 10 µM: 48.8%
SK-MEL-5; SK-MEL-5, read-out: LC50
  CC50: 43 µM
SK-MEL-5; SK-MEL-5, read-out: TGI
  IC (TGI): 18.4 µM
SK-MEL-28; SK-MEL-28
  GI50: 11.9 µM
SK-MEL-28; SK-MEL-28, 48 h, read-out: Growth Percentage
  activity at 10 µM: 64.2%
SK-MEL-28; SK-MEL-28, read-out: LC50
  CC50: 50.2 µM
SK-MEL-28; SK-MEL-28, read-out: TGI
  IC (TGI): 24.5 µM
OVCAR-4; OVCAR-4
  GI50: 10.7 µM
OVCAR-4; OVCAR-4, 48 h, read-out: Growth Percentage
  activity at 10 µM: 49.5%
OVCAR-4; OVCAR-4, read-out: LC50
  CC50: 48.5 µM
OVCAR-4; OVCAR-4, read-out: TGI
  IC (TGI): 22.8 µM
CCRF-CEM
  GI50: 3.06 µM
CCRF-CEM; [1]
  activity at 10 µM: -11%
CCRF-CEM; read-out: TGI
  IC (TGI): 61.5 µM
UACC-257; UACC-257
  GI50: 11.3 µM
UACC-257; UACC-257, 48 h, read-out: Growth Percentage
  activity at 10 µM: 69.1%
UACC-257; UACC-257, read-out: LC50
  CC50: 51.9 µM
UACC-257; UACC-257, read-out: TGI
  IC (TGI): 24.2 µM
